Drawing on patent US20100081679A1, “DIAMINOPYRIMIDINES AS FUNGICIDES” (Bayer CropScience AG, priority 2007, published 2010), this text covers logP and chromatographic logP for 69 compounds.

Marks after values point to notes of the source that are not given here.

The first series in a line: logP determination via retention times, calibrated with unbranched alkan-2-ones. The following applies: HPLC on reversed-phase C 18, EEC Directive 79/831 Annex V.A8; method *: 40° C., 0.1% aqueous formic acid and acetonitrile, linear gradient 10% to 95% acetonitrile. The format is physicochemical.
For the compound `CNC(=O)Oc1cccc(Nc2ncc(Cl)c(NCC3CC3)n2)c1` [compound 514], the logP is on record as 1.61*.

For the compound `COc1cc(Nc2ncc(Br)c(NC3CC3)n2)cc(OC)c1` [compound 563], the logP is 2.15*.

For `CCCOc1cccc(Nc2ncc(Cl)c(NC3CC3)n2)c1` [compound 531], the logP was 2.64*.

With `FC(F)Sc1ccc(Nc2ncc(Cl)c(NCC3CC3)n2)cc1` [compound 559], the logP was 2.91*.

`CCOC(=O)Nc1cccc(Nc2ncc(Cl)c(NCC3CC3)n2)c1` [compound 513]: the logP is 1.9*.

With `Cc1cc(C)cc(Nc2ncc(Br)c(NCC3CC3)n2)c1` [compound 471], the logP was 2.36*.

Regarding `CCOC(=O)Nc1ccc(Nc2ncc(Br)c(NCC3CC3)n2)cc1O` [compound 489], the logP was 1.75*.

For `C=CC(=O)Nc1cccc(Nc2ncc(Br)c(NCC3CC3)n2)c1` [compound 482], the logP was 1.66*.

Staying with this series, now noted: HPLC on reversed-phase C 18, method **: 43° C.; 0.1% aqueous phosphoric acid and acetonitrile; linear gradient 10% to 95% acetonitrile.
On to `CC(=O)Nc1ccc(Nc2ncc(C(F)(F)F)c(NC3CC3)n2)cc1` [compound 956], for which the logP was 1.64**.

With `COc1cc(Nc2ncc(C(F)(F)F)c(NC3CC3)n2)cc(OC)c1OC` [compound 719], the logP is given as 2.56**.

The series is the same for the next values; noted with them: HPLC on reversed-phase C18, method **: 43° C.; mobile phase 0.1% aqueous phosphoric acid and acetonitrile; linear gradient 10% to 95% acetonitrile.
Regarding `CC(C)(C)NS(=O)(=O)Cc1ccc(Nc2ncc(Cl)c(NC3CC3)n2)cc1` [compound 326], the logP was 1.99**.

The same series, now with this note: HPLC on reversed-phase C18, method *: 40° C., 0.1% aqueous formic acid and acetonitrile, linear gradient 10% to 95% acetonitrile.
As to `O=C(Nc1ccc(Nc2ncc(Cl)c(NCC3CC3)n2)cc1)C(F)(F)F` [compound 672], the logP is on record as 2.02*.

`Oc1cccc(Nc2ncc(Br)c(NC3CC3)n2)c1` [compound 765]: the logP is 1.39*.

Regarding `CO/N=C(\C)c1cccc(Nc2ncc(Cl)c(NC3CC3)n2)c1` [compound 732], the logP was 2.37*.

As to `CCC(C)c1ccccc1Nc1ncc(Cl)c(NC2CC2)n1` (centres unmarked) [compound 907], the logP is recorded as 2.11*.

Take `CC(C)C(=O)Nc1ccc(Nc2ncc(C(F)(F)F)c(NC3CC3)n2)cc1` [compound 663]: the logP is 2.11*.

In the case of `FC(F)(F)Sc1ccccc1Nc1ncc(Cl)c(NC2CC2)n1` [compound 944], the logP was 3.72*.

For the compound `N#Cc1cccc(Nc2ncc(Cl)c(NCC3CC3)n2)c1` [compound 685], the logP is 2.26*.

As for `COc1ccc(Nc2ncc(Cl)c(NCC3CC3)n2)cc1OC` [compound 686], the logP is listed as 1.63*.

On to `Fc1cccc(Nc2ncc(Cl)c(NC3CC3)n2)c1F` [compound 946], for which the logP is 2.53*.

`O=C(c1cccc(Nc2ncc(Cl)c(NC3CC3)n2)c1)N1CCOCC1` [compound 735]: the logP is 1.33*.

For the compound `CC(C)(C)OC(=O)Nc1ccc(Nc2ncc(Cl)c(NC3CC3)n2)cc1` [Example 100], the logP is 2.12*.

Turning to `FC(F)Oc1ccccc1Nc1ncc(Cl)c(NC2CC2)n1` [compound 943], the logP is 2.36*.

As for `CCOC(=O)c1cccc(Nc2ncc(Br)c(NC3CC3)n2)c1` [compound 750], the logP is reported as 2.4*.

Consider `COC(=O)Nc1ccc(Nc2ncc(Cl)c(NCC3CC3)n2)cc1` [compound 153], for which the logP is 1.44*.

For the compound `O=C(c1ccc(Nc2ncc(Cl)c(NC3CC3)n2)cc1)N1CCCCC1` [compound 723], the logP is given as 1.97*.

Still in this series, the particulars now being: HPLC on reversed-phase C18, method *: 40° C.; mobile phase 0.1% aqueous formic acid and acetonitrile; linear gradient 10% to 95% acetonitrile.
`FC(F)(F)c1ccc(Nc2ncc(Cl)c(NC3CC3)n2)cc1` [compound 277]: the logP was 3.14*.

Regarding `COC(=O)Cc1cccc(Nc2ncc(Cl)c(NC3CC3)n2)c1` [compound 290], the logP is listed as 1.73*.

`Oc1ccc(Nc2ncc(Cl)c(NC3CC3)n2)c(F)c1` [compound 294]: the logP was 1.26*.

On to `COC(=O)Nc1cccc(Nc2ncc(Br)c(NC3CC3)n2)c1` [compound 309], for which the logP is given as 1.61*.

Consider `Clc1cnc(Nc2ccc(OC3CCCC3)cc2)nc1NC1CC1` [compound 299], for which the logP is listed as 2.48*.

Turning to `CCOC(=O)C1(Nc2nc(Nc3ccccc3)ncc2Cl)CC1` [compound 315], the logP is on record as 2.17*.

The series is the same for the next values; noted with them: HPLC on reversed-phase C18 column (EEC Directive 79/831 Annex V.A8); method *: 40° C.; 0.1% aqueous formic acid and acetonitrile; linear gradient 10% to 95% acetonitrile.
On to `COCc1cccc(Nc2ncc(Cl)c(NC3CC3)n2)c1` [compound 268], for which the logP is 1.67*.

Consider `O=S(=O)(Cc1cccc(Nc2ncc(Cl)c(NC3CC3)n2)c1)N1CCCCC1` [compound 262], for which the logP was 2.24*.

As for `FC(F)C(F)(F)Oc1cccc(Nc2ncc(Cl)c(NC3CC3)n2)c1` [compound 182], the logP is 3.03*.

Regarding `O=S1(=O)Cc2ccc(Nc3ncc(Cl)c(NC4CC4)n3)cc2C1` [compound 245], the logP is 1.51*.

With `O=C1CCCc2ccc(Nc3ncc(Cl)c(NC4CC4)n3)cc2N1` [compound 181], the logP is reported as 1.41*.

The same series, now with this note: HPLC reversed-phase C 18, EEC Directive 79/831 Annex V.A8; method **: 43° C., 0.1% aqueous phosphoric acid and acetonitrile, linear gradient 10% to 95% acetonitrile.
As to `CSc1cccc(Nc2nc(C)c(Cl)c(NC3CC3)n2)c1` [compound 837], the logP is given as 2.23**.

Staying with this series, now noted: HPLC reversed-phase C 18, EEC Directive 79/831 Annex V.A8; method *: 40° C., 0.1% aqueous formic acid and acetonitrile, linear gradient 10% to 95% acetonitrile.
In the case of `N#CCc1cccc(Nc2ncc(Cl)c(NCC3CC3)n2)c1` [compound 821], the logP is given as 1.81*.

Take `O=C1COCCN1c1cccc(Nc2ncc(Cl)c(NCC3CC3)n2)c1` [compound 786]: the logP is listed as 1.31*.

In the case of `CCc1cccc(Nc2ncc(Cl)c(NCC3CC3)n2)c1` [compound 776], the logP is listed as 2.37*.

As for `N#CCc1cc(Nc2ncc(Cl)c(NCC3CC3)n2)ccc1F` [compound 816], the logP is 1.87*.

`OC(c1cccc(Nc2ncc(Br)c(NC3CC3)n2)c1)C(F)(F)F` (centres unmarked) [compound 798]: the logP is listed as 1.94*.

As for `Cc1ccc(Nc2ncc(Br)c(NC3CC3)n2)cc1CC#N` [compound 820], the logP is 1.85*.

`CC(=O)Cc1cccc(Nc2ncc(Cl)c(NC3CC3)n2)c1` [compound 780]: the logP is 1.51*.

As for `CC(=O)CCc1cccc(Nc2ncc(Cl)c(NC3CC3)n2)c1` [compound 841], the logP is 1.72*.

With `Brc1cnc(Nc2ccccc2)nc1NCCC1CC1` [compound 809], the logP is recorded as 2.18*.

Staying with this series, now noted: method **: HPLC reversed-phase C 18, 43° C., 0.1% aqueous phosphoric acid and acetonitrile, linear gradient 10% to 95% acetonitrile.
On to `CCOC1(Nc2nc(Nc3ccccc3)ncc2Cl)CC1.Cl` [compound 38], for which the logP is reported as 2.23**.

`C=CCNS(=O)(=O)c1ccc(Nc2ncc(Cl)c(NC3CC3)n2)cc1` [compound 31]: the logP is listed as 2.09**.

With `CC(=O)c1ccc(Nc2ncc(Cl)c(NC3CC3)n2)cc1.Cl` [Example 45], the logP is 1.99**.

As to `NS(=O)(=O)c1ccc(Nc2ncc(F)c(NC3CC3)n2)cc1` [compound 46], the logP was 0.95**.

As to `O=S(=O)(c1cccc(Nc2ncc(Cl)c(NC3CC3)n2)c1)N1CCOCC1` [Example 19], the logP is 2.13**.

The series is the same for the next values; noted with them: method **: HPLC, reversed-phase C 18, 43° C., mobile phase 0.1% aqueous phosphoric acid and acetonitrile, linear gradient from 10% to 95% acetonitrile.
In the case of `COc1ccc(CN(c2nc(Nc3ccccc3)ncc2Cl)C2CC2)cc1` [compound 1025], the logP is listed as 4.15**.

With `CSc1cccc(Nc2ncc(Cl)c(NC3CC3(C)C)n2)c1` (centres unmarked) [compound 1029], the logP is listed as 3.07**.

Consider `CC1CC1Nc1nc(Nc2ccccc2)ncc1Cl` (centres unmarked) [compound 1008], for which the logP is reported as 2**.

Still in this series, the particulars now being: method *: HPLC reversed-phase C18, 40° C., 0.1% aqueous formic acid and acetonitrile, linear gradient 10% to 95% acetonitrile.
As for `Oc1ccc(Nc2ncc(Br)c(NCC3CC3)n2)cc1F` [compound 464], the logP is 1.53*.

`COC(=O)c1ccc(Nc2ncc(Cl)c(NC3CC3)n2)cc1Cl` [compound 378]: the logP was 2.91*.

For `CC(C)(C)C(=O)Cc1ccc(Nc2ncc(Cl)c(NC3CC3)n2)cc1` [Example 59], the logP is 2.3*.

For the compound `CN(C)S(=O)(=O)Cc1cccc(Nc2ncc(Cl)c(NC3CC3)n2)c1` [compound 431], the logP is 1.62*.

As to `Cc1cnc(Nc2cccc(Cl)c2)nc1NC1CC1` [compound 57], the logP is listed as 1.8*.

The same series, now with this note: method *: HPLC reversed-phase C 18, temperature 40° C.; mobile phase 0.1% aqueous formic acid and acetonitrile; linear gradient 10% to 95% acetonitrile.
Take `CNC(=O)c1ccc(Nc2ncc(F)c(NC3CC3)n2)cc1` [compound 584]: the logP is given as 1.05*.

For the compound `N#Cc1cnc(Nc2ccc(F)cc2)nc1NC1CC1` [compound 616], the logP was 2.58*.

Turning to `COC(=O)Cc1cccc(Nc2ncc(C#N)c(NC3CC3)n2)c1` [compound 606], the logP is 2.39*.

As for `CC(C)c1cccc(Nc2ncc(Cl)c(NC3CC3)n2)c1` [compound 633], the logP was 2.63*.

The same series, now with this note: method *: HPLC, reversed-phase C 18, 40° C., mobile phase 0.1% aqueous formic acid and acetonitrile, linear gradient from 10% to 95% acetonitrile.
Regarding `COC(=O)c1cc(Nc2ncc(Cl)c(NC3CC3)n2)ccc1O` [compound 993], the logP is listed as 1.81*.

`CSc1cccc(Nc2ncc(Cl)c(NC3CC3(C)C)n2)c1` (centres unmarked) [compound 1029]: the logP is recorded as 3.07*;.

In the case of `CCC(CC)c1ccc(Nc2ncc(Cl)c(NC3CC3)n2)cc1` [compound 1033], the logP is recorded as 3.41*.

`CN(c1nc(Nc2cccc(N3CCOC3=O)c2)ncc1Cl)C1CC1` [compound 1055]: the logP is 2.13*.

The same series, now with this note: pH 2.3; read-out: logP (pH2.3).
For the compound `CC(Nc1nc(Cl)ncc1Cl)C1CC1` (centres unmarked) [2,5-dichloro-N-(1-cyclopropylethyl)pyrimidine-4-amine], the chromatographic logP came to 2.97.

On to `CC(C)NC(=O)c1ccc(Nc2ncc(Cl)c(NC3CC3)n2)cc1` [Example 43, 4-{[5-Chloro-4-(cyclopropylamino)pyrimidin-2-yl]amino}-N-isopropylbenzamide], for which the chromatographic logP was determined as 1.73.

Staying with this series, now noted: reversed-phase C18 HPLC column; method **: HPLC reversed-phase C 18, 43° C., 0.1% aqueous phosphoric acid and acetonitrile, linear gradient 10% to 95% acetonitrile; read-out: logP.
Turning to `CC(C)NC(=O)c1ccc(Nc2ncc(Cl)c(NC3CC3)n2)cc1` [Example 43, 4-{[5-Chloro-4-(cyclopropylamino)pyrimidin-2-yl]amino}-N-isopropylbenzamide], the chromatographic logP was determined as 1.73.
